In patent US11998610B2, “Conjugates and methods of using the same” (Flagship Pioneering Innovations V, Inc., priority 2018, dated 2024):

Tests used:
[1] = Stability of conjugates in Simulated Gastric Fluid (SGF); type: in vitro ADME; conditions: simulated gastric fluid pH 1.6 with pepsin, 1 μM, 37° C.
Experimental: Assay 1. Stability of conjugates in Simulated Gastric Fluid (SGF). This assay was used to assess the stability of a conjugate in a stomach. Medium was prepared by dissolving 2 g of sodium chloride in 0.6 L in ultrapure water (MilliQ®, Millipore Sigma, Darmstadt, Germany). The pH was adjusted to 1.6 with 1N hydrochloric acid, and the volume was then adjusted to 1 L with purified water. 60 mg FaSSIF powder (Biorelevant™, London, UK) were dissolved in 500 mL buffer (above). Pepsin was added (0.1 mg/mL) (Millipore Sigma, Darmstadt, Germany), and the solution was stirred. The resulting SGF media were used fresh for each experiment. Test compounds were dissolved in DMSO stock to 1 mM. An aliquot of the DMSO stock solution was removed and diluted in the SGF Media in 15 mL falcon tubes to generate a total compound concentration of 1 μM. A 1 mL aliquot was immediately removed and diluted once with 1 volume of acetonitrile for T0 timepoint. The mixture was sealed and mixed at 37° C. in an incubator. Aliquots (1 mL) were removed at regular intervals and immediately quenched by the addition of 1 volume of acetonitrile. The resulting samples were analyzed by LC/MS to determine degradation rates in SGF.

[2] = Stability of conjugates in Simulated Intestinal Fluid (SIF); type: in vitro ADME; conditions: simulated intestinal fluid pH 6.7 with pancreatin, 1 μM, 37° C.
Experimental: Assay 2. Stability of conjugates in Simulated Intestinal Fluid (SIF). This assay was used to assess the stability of a conjugate in a small intestine. Phosphate buffer was prepared by dissolving 0.42 g of sodium hydroxide pellets and 3.95 g of monobasic sodium phosphate monohydrate and 6.19 g of sodium chloride in ultrapure water (MilliQ®, Millipore Sigma, Darmstadt, Germany). The pH was adjusted to 6.7 using aq. HCl and aq. NaOH, as necessary, and the solution was diluted with ultrapure water to produce 1 L of the pH 6.7 buffer. 112 mg FaSSIF powder (Biorelevant™, London, UK) was dissolved in 50 mL of the pH 6.7 buffer. 2 to 3 mL of the resulting solution were then added to 500 mg pancreatin (Millipore Sigma, Darmstadt, Germany). The resulting mixture was agitated by finger tapping the vessel containing the mixture until milky suspension formed. At this time, the remainder of the 50 mL FaSSiF/pH 6.7 buffer solution was added. The resulting suspension was flipped upside down 10 times to produce SIF, which was used fresh. Test compounds were dissolved in DMSO stock to 1 mM. An aliquot of the DMSO stock solution was removed and diluted in the SIF media in 15 mL falcon tubes to produce a mixture with a tested compound concentration of 1 μM. A 1 mL aliquot was immediately removed and diluted once with 1 volume of acetonitrile for T0 timepoint. The mixture was sealed and agitated at 37° C. in an incubator. Aliquots (1 mL) were removed at regular intervals and immediately quenched by the addition of 1 volume of acetonitrile. The resulting samples were analyzed by LC/MS to determine degradation rates

[3] = In vitro Colonic Material Stability Assay; type: in vitro ADME; conditions: for Assay 3 (% Remaining at 24 h): colonic material slurry, anaerobic, 1 or 10 μM
How it was run: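 Compounds were added at 1 or 10 μM final to colonic material slurry (6.7 μL of 15% w/v slurry per 1 mL YCFAC or similar medium). Samples taken at 0–2880 min were acetonitrile-quenched and the remaining compound quantified by LC/MS.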

[4] = system: E. coli BL21(DE3); assay: Cell-based assay with ClbP with LCMS, ClbP negative strain; conditions: 10 μM compound, 37° C., 20 h
How it was run: (§1)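 Compound (10 μM final) incubated 20 h at 37° C, aerobically, with 1:40-diluted overnight cultures of ClbP-positive E. coli or negative BL21(DE3), in duplicate, alongside uninoculated LB. Remaining parent quantified by LC-MS/MS (MRM) after acetonitrile quench, expressed as percent of media-alone.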

[5] = system: E. coli CFT073 ATCC 700928 and/or E. coli Nissle 1917; assay: Cell-based assay with ClbP with LCMS, ClbP positive strain; conditions: ClbP-encoding E. coli, 10 μM compound, 37° C., 20 h
How it was run: as §1

Row | Structure (SMILES) | Assay 1 (SGF) (% Remaining @ 1 hours) [1] | Assay 2 (SIF) (% @ Remaining 4 hours) [2] | Assay 3 (% Remaining at 24 h) [3] | % Remaining in ClbP Negative Relative to Media-Only [4] | % Remaining in ClbP Positve Relative to Media-Only [5] | Selective delivery to the colon (conclusion from Table 2) ([3]; from SGF, SIF and colonic material stability)
1 | CCCCCCCC(=O)N[C@H](CC(N)=O)C(=O)NCCCC(=O)OC [Example 43, Methyl (R)-4-(4-amino-2-octanamido-4-oxobutanamido)butanoate] | B (25-75% of the tested compound remaining) | B (25-75% of the tested compound remaining) | B (25-75% of the tested compound remaining) | − (>75% compound remaining in the 20 μM WT ClbP reaction relative to the no-enzyme control) | − (>75% compound remaining in the 20 μM WT ClbP reaction relative to the no-enzyme control) | –
2 | CCCCCCCC(=O)N[C@H](CC(N)=O)C(=O)N[C@@H](C)CCC(=O)Oc1ccc(Br)cc1 [Example 47, 4-bromophenyl (S)-4-((R)-4-amino-2-octanamido-4-oxobutanamido)pentanoate] | C (>75% of the tested compound remaining) | A (<25% of the tested compound remaining) | A (<25% of the tested compound remaining) | − (>75% compound remaining in the 20 μM WT ClbP reaction relative to the no-enzyme control) | − (>75% compound remaining in the 20 μM WT ClbP reaction relative to the no-enzyme control) | –
3 | CCCCCCCC(=O)N[C@H](CC(N)=O)C(=O)N[C@@H](C)CCC(=O)O[C@]1(CC)C(=O)OCc2c1cc1n(c2=O)Cc2c-1nc1ccc(O)cc1c2CC [Example 49, (S)-4,11-diethyl-9-hydroxy-3,14-dioxo-3,4,12,14-tetrahydro-1H-pyrano[3′,4′:6,7]indolizino[1,2-b]quinolin-4-yl (S)-4-((R)-4-amino-2-octanamido-4-oxobutanamido)pentanoate] | C (>75% of the tested compound remaining) | C (>75% of the tested compound remaining) | C (>75% of the tested compound remaining) | + (between 25-75% compound remaining in the 20 μM WT ClbP reaction relative to the no-enzyme control) | ++ (<25% compound remaining in the 20 μM WT ClbP reaction relative to the control) | –
4 | COCCOCCC(=O)N[C@H](CC(N)=O)C(=O)N[C@@H](C)C(=O)OC [Example 61, Methyl (3-(2-methoxyethoxy)propanoyl)-D-asparaginyl-L-alaninate] | C (>75% of the tested compound remaining) | B (25-75% of the tested compound remaining) | C (>75% of the tested compound remaining) | − (>75% compound remaining in the 20 μM WT ClbP reaction relative to the no-enzyme control) | + (between 25-75% compound remaining in the 20 μM WT ClbP reaction relative to the no-enzyme control) | –
5 | CCCCCCCCCCCCCC(=O)N[C@H](CC(N)=O)C(=O)N[C@@H](C)CCC(=O)Oc1ccccc1 [Example 66, phenyl (S)-4-((R)-4-amino-4-oxo-2-tetradecanamidobutanamido)pentanoate] | C (>75% of the tested compound remaining) | B (25-75% of the tested compound remaining) | A (<25% of the tested compound remaining) | ++ (<25% compound remaining in the 20 μM WT ClbP reaction relative to the control) | + (between 25-75% compound remaining in the 20 μM WT ClbP reaction relative to the no-enzyme control) | can be selectively delivered to the colon
